The values that follow come from patent US10323022B2, “Pyrrolidinyl urea, pyrrolidinyl thiourea and pyrrolidinyl guanidine compounds as TrkA kinase inhibitors” (Array BioPharma Inc., priority 2011, dated 2019).

pIC50: −log10 of the molar value.

For this assay, the target named is TrkA (Homo sapiens (Human), UniProt P04629). Kind of assay: TrkA Omnia Assay. The assay is classed as biochemical. The conditions noted are these: averaged IC50; 20 nM enzyme, 500 μM ATP, 10 μM peptide substrate. On the procedure: Trk enzymatic selectivity was assessed using Omnia™ Kinase Assay reagents from Invitrogen Corp. Enzyme (TrkA from Invitrogen Corp.) and test compound (various concentrations) were incubated for 10 minutes at ambient temperature in a 384-well white polypropylene plate (Nunc catalog#267462). Omnia Tyr Peptide #4, as well as ATP, were then added to the plate. Final concentrations were as follows: 20 nM enzyme, 500 μM of ATP, 10 μM peptide substrate. The assay buffer consisted of 25 mM MOPS pH 7.5, 0.005% (v/v) Triton X-100 and 5 mM MgCl2. The production of phosphorylated peptide was monitored continuously for 70 minutes using a Molecular Devices FlexStation II^384 microplate reader (excitation=360 nm; emission=485 nm). Initial rates were calculated from the progress curves. IC50 values were calculated from these rates using either a 4 or 5-parameter logistic curve fit.
Sequence of TrkA (P04629 33-796): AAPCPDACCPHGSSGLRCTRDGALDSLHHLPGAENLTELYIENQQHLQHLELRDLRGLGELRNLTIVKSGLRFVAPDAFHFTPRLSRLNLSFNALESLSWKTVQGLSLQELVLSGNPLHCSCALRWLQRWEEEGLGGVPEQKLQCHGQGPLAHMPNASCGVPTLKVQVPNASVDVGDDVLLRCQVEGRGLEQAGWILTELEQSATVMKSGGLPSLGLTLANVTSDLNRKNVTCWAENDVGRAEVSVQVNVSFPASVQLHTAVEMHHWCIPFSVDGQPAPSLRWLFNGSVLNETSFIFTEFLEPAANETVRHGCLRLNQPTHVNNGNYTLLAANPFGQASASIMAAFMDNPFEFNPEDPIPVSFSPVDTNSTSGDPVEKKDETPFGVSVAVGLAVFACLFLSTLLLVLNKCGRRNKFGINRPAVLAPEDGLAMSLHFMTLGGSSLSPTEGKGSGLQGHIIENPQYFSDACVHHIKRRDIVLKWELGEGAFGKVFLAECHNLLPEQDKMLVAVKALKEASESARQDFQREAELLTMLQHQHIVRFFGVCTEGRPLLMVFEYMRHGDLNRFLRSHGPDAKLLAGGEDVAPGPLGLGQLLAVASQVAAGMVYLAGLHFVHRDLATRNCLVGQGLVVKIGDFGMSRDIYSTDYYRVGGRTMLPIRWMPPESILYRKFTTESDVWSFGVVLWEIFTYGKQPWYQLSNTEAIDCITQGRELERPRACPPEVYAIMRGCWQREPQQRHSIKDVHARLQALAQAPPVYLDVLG
`CCNC(=O)c1nn(-c2ccccc2)c(NC(=O)N[C@@H]2CN(CCOC)C[C@H]2c2ccc(F)c(F)c2)c1C` [Example 461, 5-(3-((3S,4R)-4-(3,4-difluorophenyl)-1-(2-methoxyethyl)pyrrolidin-3-yl)ureido)-N-ethyl-4-methyl-1-phenyl-1H-pyrazole-3-carboxamide]: the pIC50 was above 7.00.
Turning to `COCCN1C[C@@H](NC(=O)Nc2c(F)c(-c3ccccc3)nn2C)[C@H](c2ccc(F)c(F)c2)C1` [Example 168, 1-((3S,4R)-4-(3,4-difluorophenyl)-1-(2-methoxyethyl)pyrrolidin-3-yl)-3-(4-fluoro-1-methyl-3-phenyl-1H-pyrazol-5-yl)urea], the pIC50 is above 7.00.
In turn, `COCCN1C[C@@H](NC(=O)Nc2c(C)c(OC[C@@H](O)CO)nn2-c2ccccc2)[C@H](c2cc(F)c(F)c(F)c2)C1` [Example 560, 1-(3-((S)-2,3-dihydroxvpropoxy)-4-methyl-1-phenyl-1H-pyrazol-5-yl)-3-((3S,4R)-1-(2-methoxyethyl)-4-(3,4,5-trifluorophenyl)pyrrolidin-3-yl)urea] gave a pIC50 above 7.00.
Take `COCCN1C[C@@H](NC(=O)Nc2c(C)c(-c3cnn(C)c3)nn2-c2ccc(F)c(Cl)c2)[C@H](c2ccc(F)cc2)C1` [Example 322]: the pIC50 is above 7.00.
For `COCCN1C[C@@H](NC(=O)Nc2c(C)c(OC[C@H](C)O)nn2-c2ccccc2)[C@H](c2cc(F)c(F)c(F)c2)C1` [Example 561, 1-(3-((S)-2-hydroxypropoxy)-4-methyl-1-phenyl-1H-pyrazol-5-yl)-3-((3S,4R)-1-(2-methoxyethyl)-4-(3,4,5-trifluorophenyl)pyrrolidin-3-yl)urea], the pIC50 was above 7.00.
The figure for `COCCN1C[C@@H](NC(=O)Nc2c(Cl)c(-c3ccccc3)nn2-c2ccccc2)[C@H](c2cc(F)cc(F)c2)C1` [Example 426, 1-(4-chloro-1,3-diphenyl-1H-pyrazol-5-yl)-3-((3S,4R)-4-(3,5-difluorophenyl)-1-(2-methoxyethyl)pyrrolidin-3-yl)urea] is above 7.00; for `CCOc1nn(-c2ccccc2)c(NC(=O)N[C@@H]2CN(CCOC)C[C@H]2c2ccc(F)c(F)c2)c1C` [Example 135, 1-((3S,4R)-4-(3,4-difluorophenyl)-1-(2-methoxyethyl)pyrrolidin-3-yl)-3-(3-ethoxy-4-methyl-1-phenyl-1H-pyrazol-5-yl)urea] it is above 7.00.
`COCCN1C[C@@H](NC(=O)Nc2c(C)c(-c3cnc(N(C)C)nc3)nn2-c2ccccc2)[C@H](c2ccc(F)cc2)C1` [Example 529, 1-(3-(2-(dimethylamino)pyrimidin-5-yl)-4-methyl-1-phenyl-1H-pyrazol-5-yl)-3-((3S,4R)-4-(4-fluorophenyl)-1-(2-methoxyethyl)pyrrolidin-3-yl)urea] showed a pIC50 above 7.00.
As to `COCCN1C[C@@H](NC(=O)Nc2c(Br)c(COC3CCN(C(=O)OC(C)(C)C)CC3)nn2-c2ccccc2)[C@H](c2ccc(F)c(F)c2)C1` [Example 579, tert-butyl 4-((4-bromo-5-(3-((3S,4R)-4-(3,4-difluorophenyl)-1-(2-methoxyethyl)pyrrolidin-3-yl)ureido)-1-phenyl-1H-pyrazol-3-yl)methoxy)piperidine-1-carboxylate], the pIC50 is above 7.00.
Turning to `COCCN1C[C@@H](NC(=O)Nc2c(C)c(=O)[nH]n2-c2ccccc2)[C@H](c2cccc(F)c2)C1` [Example 613, 1-((3S,4R)-4-(3-fluorophenyl)-1-(2-methoxyethyl)pyrrolidin-3-yl)-3-(4-methyl-5-oxo-2-phenyl-2,5-dihydro-1H-pyrazol-3-yl)urea], the pIC50 is above 7.00.
For `COCCN1C[C@@H](NC(=O)Nc2c(C)c(CCO)nn2-c2ccccc2)[C@H](c2cc(F)cc(F)c2)C1` [Example 286, 1-((3S,4R)-4-(3,5-difluorophenyl)-1-(2-methoxyethyl)pyrrolidin-3-yl)-3-(3-(2-hydroxyethyl)-4-methyl-1-phenyl-1H-pyrazol-5-yl)urea] the value was above 7.00.
The figure for `COCCN1C[C@@H](NC(=O)Nc2c(C)c(C)nn2C2CCCCC2)[C@H](c2ccc(F)c(F)c2)C1` [Example 473, 1-(1-cyclohexyl-3,4-dimethyl-1H-pyrazol-5-yl)-3-((3 S,4R)-4-(3,4-difluorophenyl)-1-(2-methoxyethyl)pyrrolidin-3-yl)urea] is above 7.00; for `COCCN1C[C@@H](NC(=O)Nc2cc(C(F)(F)CO)nn2-c2ccccc2)[C@H](c2ccc(F)c(F)c2)C1` [Example 285, 1-(3-(1,1-difluoro-2-hydroxyethyl)-1-phenyl-1H-pyrazol-5-yl)-3-((3S,4R)-4-(3,4-difluorophenyl)-1-(2-methoxyethyl)pyrrolidin-3-yl)urea] it is above 7.00.
Molecule `COCCN1C[C@@H](NC(=O)Nc2c(C)c(-c3cnn(C)c3)nn2-c2ccccc2)[C@H](c2ccc(F)c(Cl)c2)C1` [Example 465, 1-((3S,4R)-4-(3-chloro-4-fluorophenyl)-1-(2-methoxyethyl)pyrrolidin-3-yl)-3-(1′,4-dimethyl-1-phenyl-1H, 1′H-3,4′-bipyrazol-5-yl)urea] had a pIC50 above 7.00.
In turn, `COCCN1C[C@@H](NC(=O)Nc2c(C(F)(F)F)c(OC)nn2-c2ccccc2)[C@H](c2cc(F)cc(F)c2)C1` [Example 606, 1-((3S,4R)-4-(3,5-difluorophenyl)-1-(2-methoxyethyl)pyrrolidin-3-yl)-3-(3-methoxy-1-phenyl-4-(trifluoromethyl)-1H-pyrazol-5-yl)urea] showed a pIC50 above 7.00.
For `Cc1nn(-c2ccccc2)c(NC(=O)N[C@@H]2CN(CC(F)(F)F)C[C@H]2c2cccc(F)c2)c1C` [Example 201, 1-(3,4-dimethyl-1-phenyl-1H-pyrazol-5-yl)-3-((3S,4R)-4-(3-fluorophenyl)-1-(2,2,2-trifluoroethyl)pyrrolidin-3-yl)urea] the value was 6.00 to 7.00; for `CCn1cc(-c2nn(-c3ccccc3)c(NC(=O)N[C@@H]3CN(CCOC)C[C@H]3c3ccc(F)cc3)c2C)cn1` [Example 524, 1-(1′-ethyl-4-methyl-1-phenyl-1H, 1′H-[3,4′-bipyrazol]-5-yl)-3-((3S,4R)-4-(4-fluorophenyl)-1-(2-methoxyethyl)pyrrolidin-3-yl)urea], above 7.00.
In the case of `COCCN1C[C@@H](NC(=O)Nc2c(C)c(-c3cnn(C)c3)nn2-c2cncc(F)c2)[C@H](c2ccc(F)c(F)c2)C1` [Example 495, 1-((3S,4R)-4-(3,4-difluorophenyl)-1-(2-methoxyethyl)pyrrolidin-3-yl)-3-(1-(5-fluoropyridin-3-yl)-1′,4-dimethyl-1H, 1′H-[3,4′-bipyrazol]-5-yl)urea], the pIC50 is above 7.00.
Molecule `O=C(Nc1c2c(nn1-c1ccccc1)CCC2)N[C@@H]1CN(CC(F)(F)F)C[C@H]1c1ccccn1` (relative stereo) [Example 209, 1-(2-phenyl-2,4,5,6-tetrahydrocyclopenta[c]pyrazol-3-yl)-3-((trans)-4-(pyridin-2-yl)-1-(2,2,2-trifluoroethyl)pyrrolidin-3-yl)urea] had a pIC50 of 6.00 to 7.00.
Turning to `COCCN1C[C@@H](NC(=O)Nc2c(C)c(-c3cnn(Cc4ccc(OC)cc4)c3)nn2-c2ccccc2)[C@H](c2ccc(F)c(F)c2)C1` [Example 446, 1-((3S,4R)-4-(3,4-difluorophenyl)-1-(2-methoxyethyl)pyrrolidin-3-yl)-3-(1′-(4-methoxybenzyl)-4-methyl-1-phenyl-1H, 1′H-[3,4′-bipyrazol]-5-yl)urea], the pIC50 is above 7.00.
The figure for `COCCN1C[C@@H](NC(=O)Nc2c(C)c(-c3cnn(CCOC)c3)nn2-c2ccccc2)[C@H](c2ccc(F)c(F)c2)C1` [Example 348, 1-((3S,4R)-4-(3,4-difluorophenyl)-1-(2-methoxyethyl)pyrrolidin-3-yl)-3-(1′-(2-methoxyethyl)-4-methyl-1-phenyl-1H,1′H-[3,4′-bipyrazol]-5-yl)urea] is above 7.00; for `COCCN1C[C@@H](NC(=O)Nc2c(-c3ccccc3)nn(C)c2C)[C@H](c2ccc(F)c(F)c2)C1` [Example 639, 1-((3S,4R)-4-(3,4-difluorophenyl)-1-(2-methoxyethyl)pyrrolidin-3-yl)-3-(1,5-dimethyl-3-phenyl-1H-pyrazol-4-yl)urea] it is above 7.00.
Molecule `CSCCN1C[C@@H](NC(=O)Nc2c3c(nn2-c2ccccc2)CCC3)[C@H](c2ccccc2)C1` (relative stereo) [Example 183, 1-(trans-1-(2-(methylthio)ethyl)-4-phenylpyrrolidin-3-yl)-3-(2-phenyl-2,4,5,6-tetrahydrocyclopenta[c]pyrazol-3-yl)urea] showed a pIC50 of 6.00 to 7.00.
`Cc1c(OCCF)nn(-c2ccccc2)c1NC(=O)N[C@H]1CN(CC(F)(F)F)C[C@@H]1c1ccccc1` [Example 266, 1-(3-(2-fluoroethoxy)-4-methyl-1-phenyl-1H-pyrazol-5-yl)-3-((3R,4S)-4-phenyl-1-(2,2,2-trifluoroethyl)pyrrolidin-3-yl)urea] had a pIC50 above 7.00.
The figure for `COCCN1C[C@@H](NC(=O)Nc2ccnn2-c2ccccc2)[C@H](c2ccccc2)C1` (relative stereo) [Example 15, 1-(trans-1-(2-methoxyethyl)-4-phenylpyrrolidin-3-yl)-3-(1-phenyl-1H-pyrazol-5-yl)urea] is 6.00 to 7.00.
Molecule `CCOC(=O)COc1nn(-c2ccccc2)c(NC(=O)N[C@@H]2CN(CCOC)C[C@H]2c2ccc(F)c(F)c2)c1C` [Example 361, ethyl 2-((5-(3-((3S,4R)-4-(3,4-difluorophenyl)-1-(2-methoxyethyl)pyrrolidin-3-yl)ureido)-4-methyl-1-phenyl-1H-pyrazol-3-yl)oxy)acetate] showed a pIC50 above 7.00.

One may read the pIC50 as −log10 of the IC50, conventionally taken in molar units.
